Activity calls are given as the source filed them. The rule behind the calls is not given here.
How the values were obtained:
[1] = biological target: Eukaryotic peptide chain release factor GTP-binding subunit ERF3A (Homo sapiens) (UniProt P15170); assay: Induction of GSPT1 degradation in human MDA-MB-231 cells at 0.016 to 10 nM incubated for 24 hrs by Western blot analysis; type: cell-based; settings: dose 0.016-10 nM
MDA-MB-231 [2] = assay: Antiproliferative activity against human MDA-MB-231 cells expressing AXL assessed as inhibition of cell growth incubated for 72 hrs by CCK8 assay; type: functional, cell-based; settings: MDA-MB-231, 72 h
MDA-MB-231 [3] = assay: Induction of cell cycle arrest in human MDA-MB-231 cells assessed as S phase cells at 33.3 nM incubated for 24 hrs by PI staining based flow cytometric analysis (reference value: 9.64 to 10.79%); type: functional

Sequence of Eukaryotic peptide chain release factor GTP-binding subunit ERF3A (Homo sapiens) (P15170 whole entry): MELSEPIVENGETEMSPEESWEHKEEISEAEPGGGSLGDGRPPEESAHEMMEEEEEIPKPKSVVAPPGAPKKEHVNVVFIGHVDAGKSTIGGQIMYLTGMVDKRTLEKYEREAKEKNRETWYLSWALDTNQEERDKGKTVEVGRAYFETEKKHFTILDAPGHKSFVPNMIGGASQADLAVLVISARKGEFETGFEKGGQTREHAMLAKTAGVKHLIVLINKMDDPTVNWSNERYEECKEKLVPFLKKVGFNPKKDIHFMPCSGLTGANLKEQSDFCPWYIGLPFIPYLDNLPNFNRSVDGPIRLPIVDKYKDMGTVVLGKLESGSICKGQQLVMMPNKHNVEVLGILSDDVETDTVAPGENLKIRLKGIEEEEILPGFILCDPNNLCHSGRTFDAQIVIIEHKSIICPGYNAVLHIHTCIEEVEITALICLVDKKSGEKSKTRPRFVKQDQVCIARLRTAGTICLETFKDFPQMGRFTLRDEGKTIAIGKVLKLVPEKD

CCc1ccc2c(c1)c(=O)c(C(=O)Nc1ccc(Oc3ncnc4cc(OCCCCCC(=O)Nc5ccc6c(c5)CN(C5CCC(=O)NC5=O)C6=O)c(OC)cc34)c(F)c1)c(C)n2C (stereo not drawn)
Activity [1]: Active | IC50 (MDA-MB-231 [2]): 10 nM | Activity (MDA-MB-231 [3]): 14.52%

— ChEMBL document CHEMBL5316328, “Discovery of AXL Degraders with Improved Potencies in Triple-Negative Breast Cancer (TNBC) Cells” (J Med Chem, 2023)
